From patent US20100120747A1, “COMBINATION OF A CHOL[…] AND A COMPOUND WITH 5-HT6 RECEPTOR AFFINITY” (priority 2006, published 2010)
Structures can show the parent of a compound that is named as a salt.

Test system: adult male Lister hooded rats
Test: Novel object discrimination (NOD) test, 4 h inter-trial interval
Assay type: in vivo, rat
Conditions: FIG. 1; for effect in the NOD test: 4 h ITI, each amount given by itself or both amounts combined
Protocol: II) Behavioural Assessment of Cognitive Effects of Compounds with 5-HT6 Receptor Affinity: Novel Object Discrimination (NOD)
Two separate groups of 12 adult male Lister hooded rats are tested in the NOD paradigm using 4 h inter-trial interval (ITI) delay between the familiarisation and choice trials which should ensure impaired discrimination and permit the pro-cognitive effects of the compounds to be evaluated.
In two separate groups of animals compound [1140] (6-chloro-N-(3-(2-(dimethylamino)ethyl)-1H-indol-5-yl)imidazo[2,1-b]thiazole-5-sulfonamide) and donepezil HCl (or vehicle) were administered on four separate occasions, at seven day intervals. The semi-randomised design for drug administration ensures that for each group, each animal receives one of the four treatment combinations once during the study: compound [1140] and donepezil HCl, compound [1140] and vehicle, donepezil HCl and vehicle, vehicle and vehicle. […] Drug pre-treatment occurred 20 min prior to the first NOD trial to ensure optimal drug plasma levels during acquisition and consolidation phases.
To maximise the opportunity to see a synergistic effect, the animals received one dose of donepezil HCl i.p. (0.05 mg/kg for group 1 and 0.1 mg/kg for group 2) in combination with the selected dose of compound [1140] (1 mg/kg) or the vehicle (saline containing 0.5 methylcellulose, 2 ml/kg).
The exact experimental protocol is outlined in detail in:
M. V. King et al, 5-HT6 receptor antagonist reverse delay-dependent deficits in novel object discrimination by enhancing consolidation—an effect sensitive to NMDA receptor antagonism, Neuropharmacology 2004, 47, 195-204 and Woolley et al. Reversal of cholinergic-induced deficit in a rodent model of recognition memory by the selective 5-HT6 receptor antagonist, Ro 04-6790; Psychopharmacology 2003, 170, 358-367.
The behavioural assessment of cognitive effects of compounds with 5-HT6 receptor affinity with the novel object discrimination (NOD) test was carried out as described above.
The results are depicted in FIG. 1. […]

In the case of CN(C)CCc1c[nH]c2ccc(NS(=O)(=O)c3c(Cl)nc4sccn34)cc12 [compound [1140], 6-chloro-N-(3-(2-(dimethylamino)ethyl)-1H-indol-5-yl)imidazo[2,1-b]thiazole-5-sulfonamide], the “effect in the NOD test” value was “does not have any effect”.

In the case of COc1cc2c(cc1OC)C(=O)C(CC1CCN(Cc3ccccc3)CC1)C2 (stereo not drawn) [donepezil hydrochloride], the “effect in the NOD test” value was “does not have any effect” and the “potentiation of the action of compound [1140] in the NOD test” value (donepezil given with compound [1140]) was “potentiates the action”.
